In the supplement of paper PMC10702517:
± gives the standard deviation.

experiment: chemical recovery into PDMS from spiked human plasma; higher = better extraction; conditions: pooled human plasma; extraction method: PES with PDMS; equilibration time (d): 3

| Compound | chemical recovery into PDMS [%] |
| --- | --- |
| O=C1CCCC=CCCCCCCCCCC1 [Velvione] | 43.1 ± 12 |
| Cc1c(C(C)C)c(=O)n(-c2ccccc2)n1C [Propyphenazone] | 22 ± 0.25 |
| Clc1cc(Cl)c(-c2c(Cl)ccc(Cl)c2Cl)cc1Cl [PCB149] | 103 ± 14 |
| CCCOP(=O)(OCCC)OCCC [Tripropyl phosphate] | 35.3 ± 6.6 |

same assay, conditions: pooled human plasma; extraction method: PES with PDMS; equilibration time (d): 6

| Compound | chemical recovery into PDMS [%] |
| --- | --- |
| CCCCc1oc2ccccc2c1C(=O)c1cc(I)c(OCCN(CC)CC)c(I)c1 [Amiodarone] | 0.0473 ± 0.062 |
| CN(C)C(=O)Nc1ccc(Cl)c(Cl)c1 [Diuron] | 37 ± 2 |
| O=C(O)c1ccc(Cl)cc1Cl [2,4-Dichlorobenzoic acid] | 0.344 ± 0.065 |
| Oc1ccc(Cl)cc1Cc1cc(Cl)ccc1O [Dichlorophen] | 2.38 ± 0.74 |
| CO/C=C(/C(=O)OC)c1ccccc1COc1cccc(C(F)(F)F)n1 [Picoxystrobin] | 48.7 ± 2.7 |
| CCCCC(=O)O[C@]1(C(=O)CO)[C@@H](C)C[C@H]2[C@@H]3CCC4=CC(=O)C=C[C@]4(C)[C@@]3(F)[C@@H](O)C[C@@]21C [Betamethasone-17-valerate] | 20.1 ± 1.2 |
| CC(=O)[C@@]1(O)CC[C@H]2[C@@H]3C[C@H](C)C4=CC(=O)C=C[C@]4(C)[C@@]3(F)[C@@H](O)C[C@@]21C [Fluorometholone] | 4.15 ± 0.95 |
| CNC1=C(c2cccc(C(F)(F)F)c2)C(=O)C(c2ccccc2)O1 (stereo not drawn) [Flurtamone] | 5.43 ± 2.8 |
| Cc1cc(C2CCCCC2)n(O)c(=O)c1 [Ciclopirox] | 21.7 ± 2.5 |
| c1ccc2sc(NC3CCCCC3)nc2c1 [N-Cyclohexyl-2-benzothiazole-amine] | 34.2 ± 1.6 |
| C/C(=N\C#N)N(C)Cc1ccc(Cl)nc1 [Acetamiprid] | 17.2 ± 2.9 |
| c1ccc(-c2ccc(C(c3ccccc3)n3ccnc3)cc2)cc1 (stereo not drawn) [Bifonazol] | 35.7 ± 4.3 |
| ClC1=C(Cl)C2(Cl)C3C4C=CC(C4)C3C1(Cl)C2(Cl)Cl (stereo not drawn) [Aldrin] | 99.8 ± 12 |
| c1ccc(-c2ccccc2-c2ccccc2)cc1 [o-Terphenyl] | 88.8 ± 18 |
| Cc1ccc(NC(=O)N(C)C)cc1Cl [Chlorotoluron] | 36.3 ± 0.76 |
| CCNc1nc(NC(C)(C)C)nc(SC)n1 [Terbutryn] | 22.9 ± 3.2 |
| CCOC(=O)C1=C(C)NC(C)=C(C(=O)OC)C1c1cccc([N+](=O)[O-])c1 (stereo not drawn) [Nitrendipin] | 18.6 ± 1.1 |
| COCC(=O)N(c1c(C)cccc1C)C(C)C(=O)OC (stereo not drawn) [Metalaxyl] | 36.9 ± 0.38 |
| O=P(c1ccccc1)(c1ccccc1)c1ccccc1 [Triphenylphosphine oxide] | 43.5 ± 1.5 |
| C=CCOC(Cn1ccnc1)c1ccc(Cl)cc1Cl (stereo not drawn) [Imazalil] | 20.7 ± 1.6 |
| O=C(Nc1ccccc1-c1ccc(Cl)cc1)c1cccnc1Cl [Boscalid] | 44.7 ± 0.64 |
| Clc1ccc(Cl)c(-c2cc(Cl)c(Cl)cc2Cl)c1 [PCB101] | 96.9 ± 3.5 |
| C[C@H]1C[C@H]2[C@@H]3CCC4=CC(=O)C=C[C@]4(C)[C@@]3(F)[C@@H](O)C[C@]2(C)[C@@]1(O)C(=O)CCl [Clobetasol] | 4.86 ± 0.99 |
| CC(CCl)OP(=O)(OC(C)CCl)OC(C)CCl (stereo not drawn) [Tris(1-chloro-2-propyl)phosphate] | 43.7 ± 3.3 |
| Clc1ccc2c(c1)CCc1cccnc1C2=C1CCNCC1 [Desloratadine] | 0.452 ± 0.57 |

| Compound | chemical recovery into PDMS [%] |
| --- | --- |
| Cc1cc(C2CC2)nc(Nc2ccccc2)n1 [Cyprodinil] | 36.2 ± 1.2 |
| CC1CCc2cc(F)cc3c(=O)c(C(=O)O)cn1c23 (stereo not drawn) [Flumequine] | 2.3 ± 1.2 |
| CCCCC(C#N)(Cn1cncn1)c1ccc(Cl)cc1 (stereo not drawn) [Myclobutanil] | 41.6 ± 0.64 |
| CCCCc1c(C)nc(NCC)nc1OS(=O)(=O)N(C)C [Bupirimate] | 41.4 ± 2.6 |
| CC(=O)CCCCn1c(=O)c2c(ncn2C)n(C)c1=O [Pentoxifylline] | 27 ± 2.1 |
| COCC(C)N(C(=O)CCl)c1c(C)csc1C (stereo not drawn) [Dimethenamid] | 44.9 ± 2.2 |
| Cc1cc(=O)oc2cc(N)ccc12 [7-Amino-4-methylcoumarin] | 18.9 ± 2.1 |
| COCCN(C(=O)CCl)c1c(C)cccc1C [Dimethachlor] | 38 ± 0.68 |
| Oc1ccc(Cl)cc1Cc1ccccc1 [Chlorophene] | 15 ± 0.42 |
| COC[P+](c1ccccc1)(c1ccccc1)c1ccccc1 [(Methoxymethyl)triphenylphosphonium] | 0.00283 ± 0.0035 |
| Cc1cccc(C)c1N(Cn1cccn1)C(=O)C(=O)O [Metazachlor OA] | 0.0244 ± 0.042 |
| CC(=O)c1cc2c(cc1C)C(C)(C)C(C)CC2(C)C (stereo not drawn) [Tonalide] | 55.1 ± 2.9 |
| Cc1cc(Cc2ccc(N)c(C)c2)ccc1N [4,4'-Methylene-bis(2-methyl aniline)] | 0.0106 ± 0.018 |
| Cc1ccc(S(N)(=O)=O)cc1 [p-Toluenesulfonamide] | 2.08 ± 0.47 |
| C[C@]12CCC(=O)C=C1[C@@H]1C[C@@H]1[C@H]1[C@@H]3[C@@H]4C[C@@H]4[C@@]4(CCC(=O)O4)[C@@]3(C)CC[C@@H]12 [Drospirenone] | 44.9 ± 1.4 |
| c1ccc(/N=N/c2ccccc2)cc1 [Azobenzene] | 27.9 ± 4 |
| Nc1ccc(-c2ccc(N)c(Cl)c2)cc1Cl [3,3'-Dichlorobenzidine] | 3.28 ± 0.46 |
| Clc1cc(Cl)c(-c2cc(Cl)c(Cl)cc2Cl)cc1Cl [PCB153] | 82.2 ± 2.6 |
| C#C[C@]1(O)C=C[C@H]2[C@@H]3CCC4=CC(=O)CC[C@@H]4[C@H]3CC[C@@]21CC [Gestoden] | 40.9 ± 4.1 |
| c1ccc2c(c1)[nH]c1cnccc12 [Norharmane] | 29 ± 1.6 |
| O=C1CCCC=CCCCCCCCCCC1 [Velvione] | 40.2 ± 13 |
| Cc1c(C(C)C)c(=O)n(-c2ccccc2)n1C [Propyphenazone] | 23 ± 2.1 |
| Clc1cc(Cl)c(-c2c(Cl)ccc(Cl)c2Cl)cc1Cl [PCB149] | 100 ± 8.1 |
| CCCOP(=O)(OCCC)OCCC [Tripropyl phosphate] | 33.8 ± 2.4 |
